These results are taken from patent publication US9850216B2 (H. LEE MOFFITT CANCER CENTER AND RESEARCH INSTITUTE, INC., priority 2013, dated 2017).

The structures appear in SMILES notation. Values joined by “and” are separate entries in the source; they are usually repeats but may differ in a detail not shown here. Identical values can stand only once.

The target in data set [1] is ACK1 (Homo sapiens, UniProt Q07912). Description: ACK1 ELISA: phosphorylation of AKT-derived peptide. The settings on record: 10 μM, Table 1, replicate values listed; for inhibition at 10 µM: read-out: % Inhibition at 10 μM (ELISA). It is filed as biochemical.
Sequence of ACK1 (Q07912 whole entry): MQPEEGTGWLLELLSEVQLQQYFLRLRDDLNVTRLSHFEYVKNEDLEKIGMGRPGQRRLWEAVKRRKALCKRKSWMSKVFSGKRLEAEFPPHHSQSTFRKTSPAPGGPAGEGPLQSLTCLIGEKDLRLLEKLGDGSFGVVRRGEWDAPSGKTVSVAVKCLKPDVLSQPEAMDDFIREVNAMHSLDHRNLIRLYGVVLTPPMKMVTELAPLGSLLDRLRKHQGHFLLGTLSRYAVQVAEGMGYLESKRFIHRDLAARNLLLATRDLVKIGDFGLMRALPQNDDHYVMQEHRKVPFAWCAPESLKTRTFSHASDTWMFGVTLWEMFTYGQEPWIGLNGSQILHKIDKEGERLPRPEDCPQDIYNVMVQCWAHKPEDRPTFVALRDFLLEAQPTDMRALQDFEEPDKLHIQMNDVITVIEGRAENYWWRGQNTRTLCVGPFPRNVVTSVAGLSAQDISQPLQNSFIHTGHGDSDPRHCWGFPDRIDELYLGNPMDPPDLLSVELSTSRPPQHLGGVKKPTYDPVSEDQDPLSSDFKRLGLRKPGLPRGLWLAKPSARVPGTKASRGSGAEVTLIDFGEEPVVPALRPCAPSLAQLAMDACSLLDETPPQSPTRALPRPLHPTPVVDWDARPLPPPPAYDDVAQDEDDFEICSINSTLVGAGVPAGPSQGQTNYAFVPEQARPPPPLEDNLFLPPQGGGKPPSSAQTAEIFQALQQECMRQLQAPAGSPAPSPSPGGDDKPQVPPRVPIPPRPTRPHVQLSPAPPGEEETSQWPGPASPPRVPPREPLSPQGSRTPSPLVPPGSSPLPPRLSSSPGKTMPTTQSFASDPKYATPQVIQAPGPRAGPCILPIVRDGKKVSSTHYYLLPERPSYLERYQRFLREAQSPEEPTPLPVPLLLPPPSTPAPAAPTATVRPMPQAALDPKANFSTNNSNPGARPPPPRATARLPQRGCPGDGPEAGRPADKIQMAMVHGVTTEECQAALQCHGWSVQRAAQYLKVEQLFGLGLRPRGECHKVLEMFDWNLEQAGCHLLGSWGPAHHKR

With `COc1ccc(CNc2ncc(C(=O)Nc3c(F)cccc3Cl)c(Nc3ccccc3S(=O)(=O)C(C)C)n2)cc1` [YL7-106-1, N-(2-chloro-6-fluorophenyl)-4-(2-(isopropylsulfonyl)phenylamino)-2-(4-methoxybenzylamino)pyrimidine-5-carboxamide], the melting point was 227 °C (dec.). Also, the “% Inhibition at 10 μM (ELISA)” value in data set [1] is 14% and 0%.
For the molecule `CCSc1ccccc1Nc1nc(Cl)ncc1C(=O)Nc1c(F)cccc1Cl` [YL7-053, 2-Chloro-N-(2-chloro-6-fluorophenyl)-4-(2-(ethylthio)phenylamino)pyrimidine-5-carboxamide], the melting point was in the range of 205 to 208 °C. Further, in data set [1], the inhibition at 10 µM worked out at 0%.
Take `CC(C)Sc1ccccc1Nc1nc(Cl)ncc1C(=O)Nc1c(F)cccc1Cl` [YL7-040, 2-Chloro-N-(2-chloro-6-fluorophenyl)-4-(2-(isopropylthio)phenylamino)pyrimidine-5-carboxamide]: the melting point was in the range of 202 to 205 °C. Moreover, the inhibition at 10 µM in data set [1] came out at 0%.
As for `O=C(Nc1c(F)cccc1Cl)c1cnc(Cl)nc1NCC1CCCO1` (centres unmarked) [YL7-102, 2-Chloro-N-(2-chloro-6-fluorophenyl)-4-((tetrahydrofuran-2-yl)methylamino)pyrimidine-5-carboxamide], the melting point was 142 °C (dec.). Besides, in data set [1], the inhibition at 10 µM amounted to 0%.
`Cl.Oc1ccc(Nc2ncc(Br)c(NCC3CCCO3)n2)cc1Cl` (centres unmarked) [YL7-172-1, 4-(5-Bromo-4-((tetrahydrofuran-2-yl)methylamino)pyrimidin-2-ylamino)-2-chlorophenol hydrochloride]: the melting point was 193 °C (dec.). For the same molecule, the “% Inhibition at 10 μM (ELISA)” value in data set [1] (hydrochloride) was 75% and 55% and 35%.
Regarding `Cl.O=C(O)c1cc(Nc2ncc(Br)c(NCC3CCCO3)n2)ccc1O` (centres unmarked) [YL8-003-1, 5-(5-Bromo-4-((tetrahydrofuran-2-yl)methylamino)pyrimidin-2-ylamino)-2-hydroxybenzoic acid hydrochloride], the melting point is 211 °C (dec.). Also, in data set [1] (hydrochloride), the “% Inhibition at 10 μM (ELISA)” value was 28% and 16%. Also, the inhibition at 10 µM in data set [1] was 27%.
Take `CCSc1ccccc1Nc1nc(Nc2ccc(OC)cc2)ncc1C(=O)Nc1c(F)cccc1Cl` [YL7-058-3, N-(2-chloro-6-fluorophenyl)-4-(2-(ethylthio)phenylamino)-2-(4-methoxyphenylamino)pyrimidine-5-carboxamide]: the melting point is 250 °C (dec.). In addition, the “% Inhibition at 10 μM (ELISA)” value in data set [1] was 1% and 0%.
For the molecule `CCSc1ccccc1Nc1nc(Nc2ccc(O)cc2)ncc1C(=O)Nc1c(F)cccc1Cl` [YL7-058-4, N-(2-chloro-6-fluorophenyl)-4-(2-(ethylthio)phenylamino)-2-(4-hydroxyphenylamino)pyrimidine-5-carboxamide], the melting point was 233 °C (dec.). Also, the “% Inhibition at 10 μM (ELISA)” value in data set [1] is 24% and 47%.
For the molecule `CCCS(=O)(=O)c1ccccc1Nc1nc(Cl)ncc1C(=O)Nc1c(F)cccc1Cl` [YL7-052, 2-Chloro-N-(2-chloro-6-fluorophenyl)-4-(2-(propylsulfonyl)phenylamino)pyrimidine-5-carboxamide], the melting point lay within 226 to 229 °C. Also, in data set [1], the “% Inhibition at 10 μM (ELISA)” value was 0% and 14% and −8%.
In the case of `Cl.Clc1cnc(Nc2ccc(C3CCNCC3)cc2)nc1NCC1CCCO1` (centres unmarked) [NT1-005, 5-Chloro-N^2-(4-(piperidin-4-yl)phenyl)-N^4-((tetrahydrofuran-2-yl)methyl)pyrimidine-2,4-diamine], in data set [1], the “% Inhibition at 10 μM (ELISA)” value worked out at 80% and the inhibition at 10 µM came to 79%.
Consider `CCOC(=O)C1CCN(c2ccc(Nc3ncc(Cl)c(NC[C@@H]4CCCO4)n3)cc2)CC1.Cl` [DZ1-079, (S)-ethyl1-(4-(5-chloro-4-((tetrahydrofuran-2-yl)methylamino)pyrimidin-2-ylamino)phenyl)piperidine-4-carboxylate], for which, in data set [1], the “% Inhibition at 10 μM (ELISA)” value is 69% and the inhibition at 10 µM is 54%.
